Results as given in patent publication US20090117199A1, “Method of treatment of cancer” (priority 1998, published 2009).
“Also recorded” adds a separate entry of the source. Read-outs that look alike come from different tables or passages of the source.

How the values were obtained:
[1] = tested on: A375 human melanoma xenograft tumors; settings: for #CR + #PR/SD (%): number (percent); for MST ± SEM (mean survival time to 2.0 g tumor): single injection
Procedure: The effects of a single IL injection of RB into A375 human melanoma xenograft tumors growing in nude mice were evaluated.
Chemoablation studies were conducted using female nu/nu mice (Harlan), 6-9 weeks of age and approximately 20 g at study Day 1.
Each mouse in Chemoablation study groups received a single subcutaneous implantation of the A375 melanoma tumor line. This consisted of implantation of either (1) a 1 mm^3 fragment of tissue in the flank or (2) subcutaneous injection of 100 μL of an A375 cell suspension into the flank. Treatment was initiated when the implanted tumor reached a size of approximately 70 mg (where tumor weight, in mg, was estimated using the formula (w^2×l)/2 in which w is width, and l is length in mm of the tumor).
RB (Aldrich product No. W1843) in isotonic saline; concentrations of 0.1% RB, 1%, RB, 1%, RB, 6% RB and 10% RB (w/v) was studied. Saline was used for the injection control group.
Treatment Plan: Mice were divided into treatment groups on study Day 1. RB treatment groups received a single IL injection of 0.1 mL RB in saline; the injection control group received a single IL injection of 0.1 mL saline. Growth control and sham treatment groups received no injection. All dosing was performed on Study Day 1. Follow up examination of the mice was conducted at regular intervals, and the test terminated on either Study day 65 or Study Day 85.
Each animal was euthanized when its A375 neoplasm reached a size of 2.0 g.
Treatment was assessed for occurrence of complete tumor regression (CR), partial tumor regression (PR) or stable disease (SD). The duration of CR, PR, or SD response was recorded throughout each study.
The Log-Rank test was used to determine the statistical significance of any difference in survival experienced between treatment and control groups. […] SigmaStat 3.0 (SPSS Inc) was used for all statistical analysis. Graphs were prepared using sigmaStat 3.0 or sigma Plot 2000 (SPSS Inc.) ver 6.00.

[2] = Partitioning coefficient of Rose Bengal, saline/1-octanol, effect of electrolyte concentration; settings: 0.5 mg/mL RB, approx. 1 day; for Kp: Partitioning coefficient (Kp)
Description: After mixing, the agent was allowed to partition for approximately 1 day. Based on absorbance measurements at 550 nm for the aqueous phase and 564 nm for the organic phase, the percentage of agent in each phase was obtained.

cancer cells = settings: essentially excluded from normal cells; cited from earlier work
[3] = cited from earlier work
[4] = Kp of RB with and without phosphate buffer; assay type: physicochemical
Description: This may be compared to 66.7 in the absence of phosphate buffer, in which case the pH would have been between about 6 to about 6.5.

[5] = tested on: melanoma lesions (stage III or IV metastatic melanoma); assay: Human trial, single IL injection of 10% RB solution in unbuffered saline
Murine Hepa 1-6 tumors = assay: Tumor response to IL 10% RB in saline, report 051016.02B; assay type: in vivo, BALB/c Nude Mice; settings: 10% RB 45 μL/tumor Qd × 1
[6] = Critical solubility of Rose Bengal in saline (cloudiness, absorbance at 1000 nm); assay type: physicochemical
Procedure: Solutions of RB at different concentrations were prepared at different sodium chloride concentrations. Saline 0.9% USP sodium chloride solution from Hospira, having a pH of 5.5, was used as a stock solution. Solutions having different sodium chloride concentrations were obtained by the addition of calculated amounts of sodium chloride.
The prepared RB/sodium chloride solutions were shaken for 1 hour and absorbance measurements were taken at 1000 nm to determine cloudiness. 1000 nm was chosen as this is in the near infra red where RB has negligible absorbance. Solution cloudiness was difficult to detect visually due to the very dark red color.
The following solutions were evaluated: • 1. 20% RB in saline concentrations of 1.0%, 1.5%, 1.6%, 1.7%, 1.8%, 1.9%, 2.0%, 2.5%, 2.6%, 2.7% and 2.9%; • 2. 15% RB in saline concentrations of […]; • 3. 10% RB in saline concentrations of 2.0%, 2.5%, 3.0% and 3.2%; and • 4. 40%, 45%, 50%, 55% and 60% solutions of RB in 0.9% saline.

[7] = 25 evaluable target lesions at final follow up
[8] = analysed per patient, 11 patients
[9] = larger lesions receiving 0.2 mL or greater doses of RB

SMILES: O=C([O-])c1c(Cl)c(Cl)c(Cl)c(Cl)c1-c1c2cc(I)c(=O)c(I)c-2oc2c(I)c([O-])c(I)cc12.[Na+].[Na+] [RB, 4,5,6,7-Tetrachloro-2′,4′,5′,7′-tetraiodofluorescein]
- tumor growth response ([1]; 0.1% RB (Group C)): qualitatively and statistically equivalent to the control groups
- #CR ([1]; 0.1% RB, 5 mg/kg, IL, N=5): 0
- #PR/SD ([1]; 0.1% RB, 5 mg/kg, IL, N=5): 0
- #CR + #PR/SD (%) ([1]; 0.1% RB, 5 mg/kg, IL, N=5): 0 (0)
- MST ± SEM (mean survival time to 2.0 g tumor) ([1]; 0.1% RB, 5 mg/kg, IL, N=5): 27.0 ± 3.0 (5) days
- clinical response of tumors ([1]; 1% RB and higher, large fraction of tumors): localized tumor necrosis with rapid eschar formation
- #CR ([1]; 1% RB, 50 mg/kg, IL, N=12): 1
- #PR/SD ([1]; 1% RB, 50 mg/kg, IL, N=12): 1
- #CR + #PR/SD (%) ([1]; 1% RB, 50 mg/kg, IL, N=12): 2 (17)
- MST ± SEM (mean survival time to 2.0 g tumor) ([1]; 1% RB, 50 mg/kg, IL, N=12): 33.1 ± 4.5 (10) days
- composite response (damage+necrosis/2) and mean severity of necrosis of tumor tissue ([1]; 1%, 3% and 6% RB treatment groups): elevated
- #CR ([1]; 3% RB, 150 mg/kg, IL, N=17): 3
- #PR/SD ([1]; 3% RB, 150 mg/kg, IL, N=17): 3
- #CR + #PR/SD (%) ([1]; 3% RB, 150 mg/kg, IL, N=17): 6 (35)
- MST ± SEM (mean survival time to 2.0 g tumor) ([1]; 3% RB, 150 mg/kg, IL, N=17): 50.0 ± 7.0 (11) days
- survival versus growth controls ([1]; 6% RB (N=6), increased survival): not statistically different
- #CR ([1]; 6% RB, 300 mg/kg, IL, N=6): 1
- #PR/SD ([1]; 6% RB, 300 mg/kg, IL, N=6): 0
- #CR + #PR/SD (%) ([1]; 6% RB, 300 mg/kg, IL, N=6): 1 (17)
- MST ± SEM (mean survival time to 2.0 g tumor) ([1]; 6% RB, 300 mg/kg, IL, N=6): 35.4 ± 6.6 (5) days
- #CR ([1]; 10% RB, 500 mg/kg, IL, N=5): 1
- #PR/SD ([1]; 10% RB, 500 mg/kg, IL, N=5): 1
- #CR + #PR/SD (%) ([1]; 10% RB, 500 mg/kg, IL, N=5): 2 (40)
- MST ± SEM (mean survival time to 2.0 g tumor) ([1]; 10% RB, 500 mg/kg, IL, N=5): 52.2 ± 14.9 (3) days
- systemic toxicity ([1]; all tumour treatments, IL): well-tolerated
- tolerability of intralesional injection ([1]; concentrations up to 10% (500 mg/kg)): well tolerated by all animals
- residual RB in perilesional tissue ([1]; terminal sacrifice): no residual RB
- histology of tumor and peritumor tissue ([1]; terminal sacrifice, no dose-related trends): minimal perilesional inflammation and damage
- % Partitioning in Octanol ([2]; 0.00% saline): 75.79 ± 1.75%
- % Partitioning in Octanol ([2]; 0.50% saline): 95.13 ± 1.43%
- % Partitioning in Octanol ([2]; 0.90% saline): 98.52 ± 0.26%
- % Partitioning in Octanol ([2]; 2.50% saline): 99.35 ± 0.28%
- Kp ([2]; 0.00% saline): 3.14 ± 0.29
- Kp ([2]; 0.50% saline): 20.8 ± 6.77
- Kp ([2]; 0.90% saline): 68.2 ± 4.43
- Kp ([2]; 2.50% saline): 215 ± 105
- Kp ([2]; […] saline): 44.2 ± 5.52
- % Partitioning in Octanol ([2]; […] saline): 97.77 ± 0.25%
- uptake into cancer cells versus normal cells (cancer cells): preferential uptake into cancer cells
- excretion ([3]; bile): rapidly excreted from the bile in unmetabolized form
- removal from the blood ([3]; blood): almost exclusively removed from the blood by the liver
- Kp ([4]; phosphate buffered saline, pH 7.4): 11.5
- Kp ([4]; solution without phosphate buffer (unbuffered), absence of phosphate buffer, pH between about 6 to about 6.5): 66.7
- objective response rate (ORR), target lesions [5, 7]: 48%
- target lesions with complete response (CR), RECIST [5, 7]: 36%
- target lesions with partial response (PR) [5, 7]: 12%
- target lesions with progressive disease [5, 7]: 24%
- target lesions with stable disease [5, 7]: 28%
- CR, non-target lesions individually ([5]; 26 evaluable nontarget lesions): 15%
- ORR, non-target lesions individually ([5]; 26 evaluable nontarget lesions): 27%
- PD, non-target lesions individually ([5]; 26 evaluable nontarget lesions): 52%
- PR, non-target lesions individually ([5]; 26 evaluable nontarget lesions): 12%
- CR, overall response per patient [5, 8]: 27%
- ORR, overall response per patient [5, 8]: 55%
- PR, overall response per patient [5, 8]: 27%
- progressive disease (PD), overall response per patient [5, 8]: 18%
- stable disease (SD), overall response per patient [5, 8]: 27%
- CR [5, 9]: 62%
- PR [5, 9]: 8%
- successful chemoablation (CR + PR) [5, 9]: ~70%
- ORR of nontarget lesions ([5]; patients with a negative lesion response): 0%
- ORR of nontarget lesions ([5]; patients with a positive objective response of target lesions): 44%
- CR, non-target lesions per patient ([5]; per patient basis): 9%
- ORR, non-target lesions per patient ([5]; per patient basis): 27%
- PD, non-target lesions per patient ([5]; per patient basis): 27%
- PR, non-target lesions per patient ([5]; per patient basis): 18%
- Subsequent status ([5]; per patient, some had subsequent other treatment): Alive at 34; also recorded: Dead at 12; also recorded: Dead at 9; also recorded: Alive at 31; also recorded: Alive at 27; also recorded: Dead at 8; also recorded: Alive at 28; also recorded: Alive at 29; also recorded: Alive at 30
- adverse effects ([5]; single IL treatment): generally mild and transient
- tumors fully ablated (Murine Hepa 1-6 tumors; 3 days post injection, 10/group): IL RB fully ablated 8/10 tumors 3
- partial responses (number of tumors) (Murine Hepa 1-6 tumors; large tumors): responses were seen in 2 large
- solution stability ([6]; RB solutions within the therapeutic amounts): stable
- RB concentration that can be achieved ([6]; in 0.9% saline): up to 45%
